Five compounds from PubChem BioAssay AID1259407 (Chemical Carcinogenesis Research Information System (CCRIS), 2018) can be followed below.

The test system of this data set is CCRIS mutagenicity, Ames/micronucleus/aberration tests. As to the kind of experiment: CCRIS mutagenicity studies.
[1] abbreviates: Test System: AMES SALMONELLA TYPHIMURIUM, Strain/Indicator: TA97, Metabolic Activation: NONE, Method: PREINCUBATION
The mark [2] stands for this setting: Test System: AMES SALMONELLA TYPHIMURIUM, Strain/Indicator: TA98, Metabolic Activation: NONE, Method: PREINCUBATION
The mark [3] stands for this setting: Test System: AMES SALMONELLA TYPHIMURIUM, Strain/Indicator: TA98, Metabolic Activation: RAT, LIVER, S-9, AROCLOR 1254, Method: PREINCUBATION
Setting [4] is: Test System: AMES SALMONELLA TYPHIMURIUM, Strain/Indicator: TA100, Metabolic Activation: NONE, Method: PREINCUBATION
The mark [5] stands for this setting: Test System: AMES SALMONELLA TYPHIMURIUM, Strain/Indicator: TA100, Metabolic Activation: RAT, LIVER, S-9, AROCLOR 1254, Method: PREINCUBATION
The mark [6] stands for this setting: Test System: AMES SALMONELLA TYPHIMURIUM, Strain/Indicator: TA1535, Metabolic Activation: NONE, Method: PREINCUBATION
Setting [7] is: Test System: AMES SALMONELLA TYPHIMURIUM, Strain/Indicator: TA1537, Metabolic Activation: NONE, Method: PREINCUBATION

Active and inactive are the calls of the source. How the calls were made is not given here.

With `COc1cc(C(C)=O)ccc1O`, the mutagenic call under setting [1] is “inactive; negative”; the mutagenic call (Test System: AMES SALMONELLA TYPHIMURIUM, Strain/Indicator: TA97, Metabolic Activation: RAT, LIVER, S-9, AROCLOR 1254, Method: PREINCUBATION) is “inactive; negative”; the mutagenic call under setting [2] was “inactive; negative”; the mutagenic call under setting [3] is “inactive; negative”; the mutagenic call under setting [4] was “inactive; negative”; the mutagenic call under setting [5] was “inactive; negative”. The mutagenic call is, setting by setting: (Test System: AMES SALMONELLA TYPHIMURIUM, Strain/Indicator: TA102, Metabolic Activation: NONE, Method: PREINCUBATION) “inactive; negative”; (Test System: AMES SALMONELLA TYPHIMURIUM, Strain/Indicator: TA102, Metabolic Activation: RAT, LIVER, S-9, AROCLOR 1254, Method: PREINCUBATION) “inactive; negative”.
Take `CC(=O)ON(OCc1ccc(Oc2ccccc2)cc1)C(=O)c1ccccc1`: the mutagenic call reads like this: (Test System: AMES SALMONELLA TYPHIMURIUM, Strain/Indicator: TA100, Metabolic Activation: NONE, Method: STANDARD PLATE) “active; positive”; (Test System: AMES SALMONELLA TYPHIMURIUM, Strain/Indicator: TA100, Metabolic Activation: RAT, S-9, AROCLOR, Method: STANDARD PLATE) “active; positive”.
With `Brc1ccccc1`, the mutagenic call is “inactive; negative” (End Point: IN VITRO CHROMOSOMAL ABERRATIONS, Test System: CHINESE HAMSTER OVARY CELLS, Metabolic Activation: NONE); “inactive; negative” (End Point: IN VITRO CHROMOSOMAL ABERRATIONS, Test System: CHINESE HAMSTER OVARY CELLS, Metabolic Activation: RAT, LIVER, S-9, AROCLOR 1254); “inactive; negative” (Test System: AMES SALMONELLA TYPHIMURIUM, Strain/Indicator: TA98, Metabolic Activation: HAMSTER, LIVER, S-9, AROCLOR 1254, Method: PREINCUBATION); “inactive; negative” under setting [2]; “inactive; negative” under setting [3]; “inactive; negative” (Test System: AMES SALMONELLA TYPHIMURIUM, Strain/Indicator: TA100, Metabolic Activation: HAMSTER, LIVER, S-9, AROCLOR 1254, Method: PREINCUBATION). Moreover, the mutagenic call under setting [4] is “inactive; negative”; the mutagenic call under setting [5] is “inactive; negative”; the mutagenic call (Test System: AMES SALMONELLA TYPHIMURIUM, Strain/Indicator: TA1535, Metabolic Activation: HAMSTER, LIVER, S-9, AROCLOR 1254, Method: PREINCUBATION) is “inactive; negative”; the mutagenic call under setting [6] was “inactive; negative”; the mutagenic call (Test System: AMES SALMONELLA TYPHIMURIUM, Strain/Indicator: TA1535, Metabolic Activation: RAT, LIVER, S-9, AROCLOR 1254, Method: PREINCUBATION) was “inactive; negative”; the mutagenic call (Test System: AMES SALMONELLA TYPHIMURIUM, Strain/Indicator: TA1537, Metabolic Activation: HAMSTER, LIVER, S-9, AROCLOR 1254, Method: PREINCUBATION) is “inactive; negative”. The mutagenic call reads like this: under setting [7], “inactive; negative”; (Test System: AMES SALMONELLA TYPHIMURIUM, Strain/Indicator: TA1537, Metabolic Activation: RAT, LIVER, S-9, AROCLOR 1254, Method: PREINCUBATION) “inactive; negative”.
As to `CN(C)CCNC(=O)c1cc2ccccc2c2cccnc12`, where the note is “Test System: AMES SALMONELLA TYPHIMURIUM, Strain/Indicator: TA1537, Metabolic Activation: NONE, Method: STANDARD PLATE”, the mutagenic call is “active; positive”.
Consider `COC[CH2][Hg][Cl]`, for which the mutagenic call (Test System: AMES SALMONELLA TYPHIMURIUM, Strain/Indicator: TA97, Metabolic Activation: HAMSTER, LIVER, S-9, AROCLOR 1254 (30%), Method: PREINCUBATION) was “inactive; negative”; the mutagenic call under setting [1] is “inactive; negative”; the mutagenic call (Test System: AMES SALMONELLA TYPHIMURIUM, Strain/Indicator: TA97, Metabolic Activation: RAT, LIVER, S-9, AROCLOR 1254 (30%), Method: PREINCUBATION) was “inactive; negative”; the mutagenic call (Test System: AMES SALMONELLA TYPHIMURIUM, Strain/Indicator: TA98, Metabolic Activation: HAMSTER, LIVER, S-9, AROCLOR 1254 (10%), Method: PREINCUBATION) was “inactive; negative”; the mutagenic call (Test System: AMES SALMONELLA TYPHIMURIUM, Strain/Indicator: TA98, Metabolic Activation: HAMSTER, LIVER, S-9, AROCLOR 1254 (30%), Method: PREINCUBATION) is “inactive; negative”; the mutagenic call under setting [2] was “inactive; negative”. Moreover, the mutagenic call reads like this: (Test System: AMES SALMONELLA TYPHIMURIUM, Strain/Indicator: TA98, Metabolic Activation: RAT, LIVER, S-9, AROCLOR 1254 (10%), Method: PREINCUBATION) “inactive; negative”; (Test System: AMES SALMONELLA TYPHIMURIUM, Strain/Indicator: TA98, Metabolic Activation: RAT, LIVER, S-9, AROCLOR 1254 (30%), Method: PREINCUBATION) “inactive; negative”; (Test System: AMES SALMONELLA TYPHIMURIUM, Strain/Indicator: TA100, Metabolic Activation: HAMSTER, LIVER, S-9, AROCLOR 1254 (10%), Method: PREINCUBATION) “inactive; negative”; (Test System: AMES SALMONELLA TYPHIMURIUM, Strain/Indicator: TA100, Metabolic Activation: HAMSTER, LIVER, S-9, AROCLOR 1254 (30%), Method: PREINCUBATION) “inactive; negative”; under setting [4], “inactive; negative”; (Test System: AMES SALMONELLA TYPHIMURIUM, Strain/Indicator: TA100, Metabolic Activation: RAT, LIVER, S-9, AROCLOR 1254 (10%), Method: PREINCUBATION) “inactive; negative”. Also, the mutagenic call reads like this: (Test System: AMES SALMONELLA TYPHIMURIUM, Strain/Indicator: TA100, Metabolic Activation: RAT, LIVER, S-9, AROCLOR 1254 (30%), Method: PREINCUBATION) “inactive; negative”; (Test System: AMES SALMONELLA TYPHIMURIUM, Strain/Indicator: TA1535, Metabolic Activation: HAMSTER, LIVER, S-9, AROCLOR 1254 (10%), Method: PREINCUBATION) “inactive; negative”; (Test System: AMES SALMONELLA TYPHIMURIUM, Strain/Indicator: TA1535, Metabolic Activation: HAMSTER, LIVER, S-9, AROCLOR 1254 (30%), Method: PREINCUBATION) “inactive; negative”; under setting [6], “inactive; negative”; (Test System: AMES SALMONELLA TYPHIMURIUM, Strain/Indicator: TA1535, Metabolic Activation: RAT, LIVER, S-9, AROCLOR 1254 (10%), Method: PREINCUBATION) “inactive; negative”; (Test System: AMES SALMONELLA TYPHIMURIUM, Strain/Indicator: TA1535, Metabolic Activation: RAT, LIVER, S-9, AROCLOR 1254 (30%), Method: PREINCUBATION) “inactive; negative”. Besides, the mutagenic call runs as follows: (Test System: AMES SALMONELLA TYPHIMURIUM, Strain/Indicator: TA1537, Metabolic Activation: HAMSTER, LIVER, S-9, AROCLOR 1254 (30%), Method: PREINCUBATION) “inactive; negative”; under setting [7], “inactive; negative”; (Test System: AMES SALMONELLA TYPHIMURIUM, Strain/Indicator: TA1537, Metabolic Activation: RAT, LIVER, S-9, AROCLOR 1254 (30%), Method: PREINCUBATION) “inactive; negative”.
